Test results taken from US8859527B2 (priority 2009, dated 2014).
Like-named read-outs stand apart in the source and are kept apart here.

Legend:
transplanted tumor Heps = tested on: transplanted tumor Heps
Procedure: (§1) Experimental groups: three dosage groups were set up for DPT, 10, 5 and 2.5 mg/kg; the blank control group: cyclophosphamide (CTX) group, Etoposide group 20 mg/kg.
(§2) Administration route: injection via tail vein, it is administered in a dosage of 0.4 ml/20 g body weight. Administration period: the drug is administrated 24 hours after the inoculation, once every two days for four times in total.
(§3) Experimental methods: 60 ICR mice with standard weight of from 18 to 22 g are inoculated with S-180 or Heps solid tumor according to the test method for transplanted tumors, hypodermic inoculation with 0.2 ml is carried out in the armpit in the anterior limb of every mouse. The body weight is determined 24 hours after the inoculation and they are randomly divided into six groups: the blank control group, the CTX group (20 mg/kg), the Etoposide group (20 mg/kg), the DPT group (10, 5 and 2.5 mg/Kg). The drug is administrated 24 hours after the inoculation once for every two days for 4 times, and tumor-bearing mice are killed on the next after drug withdrawal and their body weights are measured, and the separated tumor mess is weighed, and all of the data are subjected to statistical analyses (t-test).

transplanted tumor S180 = tested on: transplanted tumor S180
Procedure: as §1, §2, §3

[1] = tested on: A-549 (human lung adenocarcinoma cell line); experiment: in vitro growth inhibition of tumor cells, A-549; type: cell-based; details: A549, 48 hours
Procedure: (§4) The tumor strains are A-549 (human lung adenocarcinoma cell line), BGC-823 (human gastric cancer cell line), C-6 (rat neurogliocytoma cell line), Hep G2 (human hepatic cancer cell line), HL-60 (human leukemia cell line), K-562 (human erythremia cell line) and Hela (human cervical cancer cell line). […] The drug was prepared as a stock solution of 10^−2 M by using physiological saline and diluted into the test solution in a gradient composed of five concentrations: C1 5×10^−5 M, C2 10^−5 M, C3 10^−6 M, C4 10^−7 M and C5 10^−8 M.
(§5) Experimental method: different tumor cells in exponential growth phase are inoculated in 96-well plates in a certain amount and the selected samples are added after the cells are cultured for 24 hours (suspension cells can be directly added after being inoculated), after the cells are incubated at 37° C. and 5% CO2 for another 48 hours, […] is added for further incubation for another 4 hours, and finally the samples are examined on a microplate reader after dissolving with DMSO.

[2] = tested on: BGC-823 (human gastric cancer cell line); experiment: in vitro growth inhibition of tumor cells, BGC-823; type: cell-based; details: 48 hours
Procedure: as §4, §5

[3] = tested on: C-6 (rat neurogliocytoma cell line); experiment: in vitro growth inhibition of tumor cells, C-6; type: cell-based; details: C6, 48 hours
Procedure: as §4, §5

[4] = tested on: Hep G2 (human hepatic cancer cell line); experiment: in vitro growth inhibition of tumor cells, Hep G2; type: cell-based; details: HepG2, 48 hours
Procedure: as §4, §5

[5] = tested on: HL-60 (human leukemia cell line); experiment: in vitro growth inhibition of tumor cells, HL-60; type: cell-based; details: 48 hours
Procedure: as §4, §5

[6] = tested on: Hela (human cervical cancer cell line); experiment: in vitro growth inhibition of tumor cells, Hela; type: cell-based; details: hela, 48 hours
Procedure: as §4, §5

[7] = tested on: K-562 (human erythremia cell line); experiment: in vitro growth inhibition of tumor cells, K-562; type: cell-based; details: K562, 48 hours
Procedure: as §4, §5

[8] = tested on: human non-small cell lung cancer H460 xenograft tumor; details: mouse, in vivo, iv, 20 mg/kg
Procedure: (§6) The test article: the inclusion complex of DPT and SBE-β-CD, the content is 5.05%. Preparation Method: it is dissolved in a proper amount of saline after gentle shaking and the concentration is 0.4 mg/ml (which is the test solution for the 8 mg/kg group); other concentrations are prepared by diluting the stock solution of 0.4 mg/ml to the required concentration with physiological saline.
(§7) The control article: Etoposide injection produced by Qilu Pharmaceutical Co., Ltd. the batch number is 8060012EV, specification: 5 ml:0.1 g. Preparation Method: Etoposide injection is a kind of transparent sticky liquid and it is diluted with a proper amount of physiological saline and gently shaken and prepared as a homogeneous solution, and the concentration is 1 mg/ml.
(§8) Dosage setting: the high dosage group of DPT is 8 mg/kg, the medium dosage group of DPT is 4 mg/kg and the low dosage group of DPT is 2 mg/kg. The dosage for the positive control group of Etoposide injection is 20 mg/kg.
(§9) Experimental animals: source, germline and strain: BALB/c nude mice are provided by the Institute of Experimental Animals, Chinese Academy of Medical Sciences. Age: 35-40 days; body weight: 18-24 g; gender: male.
(§10) Transplanted tumor: the transplanted tumor for human nonsmall-cell lung cancer H460 in nude mice, and it is established by inoculating the human nonsmall-cell lung cancer H460 cell line hypodermically in the armpit of nude mice. 2×10^6 cells are inoculated.
(§11) Human non-small cell lung cancer H460 cell line in exponential phase of growth is prepared as a cell suspension of 2×10^7/ml under sterile conditions, 0.1 ml thereof is inoculated hypodermically in the right armpit of nude mice. The diameters of the transplanted tumors in the nude mice are measured by a sliding caliper, and the animals are randomly divided into different groups when the tumors grow up to the amount of 100 to 300 mm^3. The antitumor efficacy of the test article is dynamically observed by measuring the diameter of the tumor. The diameters of the tumor are determined once for every two days. The administration volume is 0.4 ml/20 g. The mice are killed 21 days after administration, and the tumors are surgically isolated and weighed. The calculation formula for tumor volume (TV) is as follows: TV=½×a×b^2 Wherein a and b represents for the length and the width, respectively.
(§12) The relative tumor volume (RTV) is calculated according to the measured results, and the calculation formula is as follows: RTV=Vt/V0. Wherein V0 is the tumor size measured during grouping and drug administration (d0), Vt is the tumor size in every measurements. The evaluation parameter for antitumor activity is the relative tumor growth rate T/C (%) which is calculated according to the formula as follows:
(§13) [formula] TRTV: the treatment group RTV; CRTV: the negative control group: RTV.

[9] = tested on: human non-small cell lung cancer H460 xenograft tumor; details: for Tumor volume / RTV / T/C / Gross tumor volume: 20 mg/kg iv
Procedure: as §6, §7, §8, §9, §10, §11, §12, §13

[10] = Heps mice, 20 mg/kg iv, once every two days, four times
[11] = S180 mice, 20 mg/kg iv, once every two days, four times
[12] = H460 nude mice, 20 mg/kg iv three times a week, 9 times, 21 days

With `O=P1(N(CCCl)CCCl)NCCCO1` (centres unmarked) [CTX, cyclophosphamide, reference compound] the “Body weight Before administration” value (transplanted tumor Heps; Heps mice, 20 mg/kg iv group) was 21.30 ± 1.49 g, the “Body weight After administration” value (transplanted tumor Heps; [10]) was 22.50 ± 3.69 g and the Tumor inhibition rate (transplanted tumor Heps; [10]) was 66.94%. The Tumor weight (transplanted tumor Heps; [10]) was 0.65 ± 0.21 g, the “Body weight Before administration” value (transplanted tumor S180; S180 mice, 20 mg/kg iv group) was 19.80 ± 1.69 g and the “Body weight After administration” value (transplanted tumor S180; [11]) was 23.00 ± 2.50 g. It also gave a Tumor weight (transplanted tumor S180; [11]) of 0.98 ± 0.22 g and a Tumor-inhibition rate (transplanted tumor S180; [11]) of 46.77%.

With `COc1cc([C@@H]2c3cc4c(cc3[C@@H](O[C@@H]3O[C@@H]5CO[C@@H](C)O[C@H]5[C@H](O)[C@H]3O)[C@H]3COC(=O)[C@H]23)OCO4)cc(OC)c1O` [Etoposide, reference compound] the “Inhibition effects on in vitro growth” value ([1]; 5 × 10^−5M) was 68.67%, the “Inhibition effects on in vitro growth” value ([1]; 10^−5M) was 22.99% and the “Inhibition effects on in vitro growth” value ([1]; 10^−6M) was 5.18%. The “Inhibition effects on in vitro growth” value ([1]; 10^−7M) was 3.68%, the “Inhibition effects on in vitro growth” value ([1]; 10^−8M) was 2.3% and the “Inhibition effects on in vitro growth” value ([2]; 5 × 10^−5M) was 61.14%. For the same compound, the “Inhibition effects on in vitro growth” value ([2]; 10^−5M) was 10.55%, the “Inhibition effects on in vitro growth” value ([2]; 10^−6M) was 8.15% and the “Inhibition effects on in vitro growth” value ([2]; 10^−7M) was 7.67%. The “Inhibition effects on in vitro growth” value ([2]; 10^−8M) was 3.41%, the “Inhibition effects on in vitro growth” value ([3]; 5 × 10^−5M) was 66.2% and the “Inhibition effects on in vitro growth” value ([3]; 10^−5M) was 59.96%. For the same compound, the “Inhibition effects on in vitro growth” value ([3]; 10^−6M) was 49.99%, the “Inhibition effects on in vitro growth” value ([3]; 10^−7M) was 16.67% and the “Inhibition effects on in vitro growth” value ([3]; 10^−8M) was 9.98%. The “Inhibition effects on in vitro growth” value ([4]; 5 × 10^−5M) was 97.14%, the “Inhibition effects on in vitro growth” value ([4]; 10^−5M) was 38.94% and the “Inhibition effects on in vitro growth” value ([4]; 10^−6M) was 8.71%. For the same compound, the “Inhibition effects on in vitro growth” value ([4]; 10^−7M) was 2.02%, the “Inhibition effects on in vitro growth” value ([4]; 10^−8M) was 1.71% and the “Inhibition effects on in vitro growth” value ([5]; 5 × 10^−5M) was 94.85%. The “Inhibition effects on in vitro growth” value ([5]; 10^−5M) was 16.01%, the “Inhibition effects on in vitro growth” value ([5]; 10^−6M) was 8.45% and the “Inhibition effects on in vitro growth” value ([5]; 10^−7M) was 3.48%. The “Inhibition effects on in vitro growth” value ([5]; 10^−8M) was 1.91%, the “Inhibition effects on in vitro growth” value ([6]; 5 × 10^−5M) was 97.26% and the “Inhibition effects on in vitro growth” value ([6]; 10^−5M) was 24.71%. The “Inhibition effects on in vitro growth” value ([6]; 10^−6M) was 6.87%, the “Inhibition effects on in vitro growth” value ([6]; 10^−7M) was 5.63% and the “Inhibition effects on in vitro growth” value ([6]; 10^−8M) was 4.35%. For the same compound, the “Inhibition effects on in vitro growth” value ([7]; 5 × 10^−5M) was 67.32%, the “Inhibition effects on in vitro growth” value ([7]; 10^−5M) was 15.04% and the “Inhibition effects on in vitro growth” value ([7]; 10^−6M) was 4.45%. The “Inhibition effects on in vitro growth” value ([7]; 10^−7M) was 3.08%, the “Inhibition effects on in vitro growth” value ([7]; 10^−8M) was 2.38% and the Tumor inhibition rate (transplanted tumor Heps; [10]) was 59.31%. For the same compound, the Tumor weight (transplanted tumor Heps; [10]) was 0.80 ± 0.37 g, the “Body weight After administration” value (transplanted tumor Heps; mouse, in vivo, iv, 20 mg/kg) was 22.40 ± 2.41 g and the “Body weight Before administration” value (transplanted tumor Heps; mouse, in vivo, iv, 20 mg/kg) was 21.10 ± 1.37 g. For the same compound, the Tumor weight (transplanted tumor S180; [11]) was 1.05 ± 0.35 g, the Tumor-inhibition rate (transplanted tumor S180; [11]) was 43.03% and the “Body weight After administration” value (transplanted tumor S180; mouse, in vivo, iv, 20 mg/kg) was 23.30 ± 1.83 g. The “Body weight Before administration” value (transplanted tumor S180; mouse, in vivo, iv, 20 mg/kg) was 19.30 ± 1.06 g, the Initial body weight [8] was 22.67 ± 1.37 g and the toxicity [8] was “obvious toxicity”. For the same compound, the Tumor volume ([9]; 0 d) was 275 ± 130 mm^3, the RTV ([9]; 2 d) was 1.306 ± 0.356 and the T/C ([9]; 2 d) was 81.24%. For the same compound, the Tumor volume ([9]; 2 d) was 352 ± 169 mm^3, the RTV ([9]; 4 d) was 2.012 ± 0.744 and the T/C ([9]; 4 d) was 77.07%. It also gave a Tumor volume ([9]; 4 d) of 534 ± 277 mm^3, an RTV ([9]; 6 d) of 2.048 ± 0.441 and a T/C ([9]; 6 d) of 66.86%. It also gave a Tumor volume ([9]; 6 d) of 531 ± 186 mm^3, an RTV ([9]; 8 d) of 2.054 ± 0.776 and a T/C ([9]; 8 d) of 46.77%. It also gave a Tumor volume ([9]; 8 d) of 539 ± 255 mm^3, a Gross tumor volume ([9]; 10 d) of 482 ± 216 mm^3 and an RTV ([9]; 10 d) of 1.846 ± 0.688. The T/C ([9]; 10 d) was 36.90%, the Gross tumor volume ([9]; 12 d) was 534 ± 254 mm^3 and the RTV ([9]; 12 d) was 2.189 ± 1.212. It also gave a T/C ([9]; 12 d) of 29.47%, an RTV ([9]; 14 d) of 2.898 ± 1.741 and a T/C ([9]; 14 d) of 34.16%. The Tumor volume ([9]; 14 d) was 682 ± 311 mm^3, the RTV ([9]; 16 d) was 3.115 ± 1.969 and the T/C ([9]; 16 d) was 31.23%. The Tumor volume ([9]; 16 d) was 730 ± 384 mm^3, the RTV ([9]; 18 d) was 3.876 ± 2.645 and the T/C ([9]; 18 d) was 34.39%. The Tumor volume ([9]; 18 d) was 873 ± 407 mm^3, the RTV ([9]; 21 d) was 3.706 ± 1.796 and the T/C ([9]; 21 d) was 32.18%. For the same compound, the Tumor volume ([9]; 21 d) was 872 ± 305 mm^3, the Tumor weight [9, 12] was 1.27 ± 0.61 g and the Tumor-inhibition rate [9, 12] was 61.08%.
